Laboratory results published in ChEMBL document CHEMBL1151403, “Antimicrobial agents from higher plants. Dragon's blood resin” (1982).
The source made the active and inactive calls. The rule behind the calls is not given here.

Key:
Staphylococcus aureus [1] = assay: Antimicrobial activity against Staphylococcus aureus ATCC 13709 at 100 mcg/mL by agar dilution-streak method; assay type: functional, organism-based
Escherichia coli = assay: Antimicrobial activity against Escherichia coli ATCC 9637 at 100 mcg/mL by agar dilution-streak method; assay type: functional, organism-based
[2] = tested on: Salmonella enterica subsp. enterica serovar Gallinarum; assay: Antimicrobial activity against Salmonella gallinarum ATCC 9184 at 100 mcg/mL by agar dilution-streak method; assay type: functional, organism-based
Klebsiella pneumoniae [3] = assay: Antimicrobial activity against Klebsiella pneumoniae ATCC 10031 at 100 mcg/mL by agar dilution-streak method; assay type: functional, organism-based
[4] = tested on: Mycolicibacterium smegmatis; assay: Antimicrobial activity against Mycobacterium smegmatis ATCC 607 at 100 mcg/mL by agar dilution-streak method; assay type: functional, organism-based
Candida albicans [5] = assay: Antimicrobial activity against Candida albicans ATCC 10231 at 100 mcg/mL by agar dilution-streak method; assay type: functional, organism-based
Staphylococcus aureus [6] = assay: Antimicrobial activity against Staphylococcus aureus ATCC 13709 by agar dilution-streak method; assay type: functional
Klebsiella pneumoniae [7] = assay: Antimicrobial activity against Klebsiella pneumoniae ATCC 10031 by agar dilution-streak method; assay type: functional
[8] = tested on: Mycolicibacterium smegmatis; assay: Antimicrobial activity against Mycobacterium smegmatis ATCC 607 by agar dilution-streak method; assay type: functional
Candida albicans [9] = assay: Antimicrobial activity against Candida albicans ATCC 10231 by agar dilution-streak method; assay type: functional

Structure (SMILES) | Activity (Staphylococcus aureus [1]) | Activity (Escherichia coli) | Activity [2] | Activity (Klebsiella pneumoniae [3]) | Activity [4] | Activity (Candida albicans [5]) | Activity (Staphylococcus aureus [6]) [µg/mL] | Activity (Klebsiella pneumoniae [7]) [µg/mL] | Activity [8] [µg/mL] | Activity (Candida albicans [9]) [µg/mL]
COc1cc(=O)cc2oc(-c3ccccc3)ccc1-2 | inactive | inactive | inactive | inactive | inactive | inactive | – | – | – | –
COc1cc2oc3cc(=O)cc4oc(-c5ccccc5)cc(c2c2c1CC[C@@H](c1ccccc1)O2)c43 | inactive | inactive | inactive | inactive | inactive | inactive | – | – | – | –
COc1c2ccc(-c3ccccc3)oc-2cc(=O)c1C [DRACORHODIN] | – | inactive | inactive | – | – | – | 50 | 100 | 25 | 25
COc1cc(O)cc2c1CC[C@H](c1ccccc1)O2 | inactive | inactive | inactive | inactive | inactive | inactive | – | – | – | –
COc1cc2oc3c(C)c(=O)cc4oc(-c5ccccc5)cc(c2c2c1CC[C@@H](c1ccccc1)O2)c43 [DRACORUBIN] | – | inactive | inactive | inactive | – | – | 50 | – | 25 | 12.5
